Assay [1] concerns the target HLA-A*2402 molecule (Homo sapiens, UniProt P04439, D101N/D140Y/D185E/E176V/E190D/F33S/G103R/G107R/I119L/I121M/I306V/K335N/L105A/L180Q/L300P/N151K/N90K/Q86E/Q94H/R106L/R138H/R89G/T104I/T345S/V100E/W191G/Y123F). In words: Peptide binding to HLA-A*2402 molecule on C1R-A24 cells (flow cytometry, Kd). The settings on record: HLA-A*2402, C1R-A24 cells; read-out: Binding assay data (−log Kd) (converted). On the procedure:
The ability of a peptide to bind to an HLA-A*2402 molecule, which is a product of the HLA-A*2402 gene, was measured using C1R-A24 cells expressing the HLA-A*2402 molecule (cells generated by Professor Masafumi Takiguchi, Kumamoto University being supplied with permission by Associate Professor Masaki Yasukawa, Ehime University).
C1R-A24 cells were first exposed to acidic conditions at a pH of 3.3 for 30 seconds, thus dissociating and removing a β2m light chain, which is associated with HLA class I molecules in common, and an endogenous peptide originally bound to the HLA-A*2402 molecule. After neutralization, purified β2m was added to C1R-A24 cells, the obtained product was added to serial dilutions of a peptide, and incubated on ice for 4 hours. […]
Subsequently, the number of MHC-pep complexes per C1R-A24 cell (proportional to the intensity of fluorescence of the above-mentioned fluorescent antibody) was quantitatively measured using a FACScan fluorescence-activated flow cytometer (Becton Dickinson Biosciences). A dissociation constant Kd value between the HLA-A*2402 molecule and the peptide was calculated from the average intensity of fluorescence per cell by a method published in the literature (Udaka et al., Immunogenetics, 51, 816-828, 2000).
A general note: In flow cytometry, cells or beads pass a laser one at a time.

The target of assay [2] is T1, HLA-A*0206 molecule (Homo sapiens, UniProt P04439, D140Y/D185E/D98H/E176V/E277Q/F33Y/G131W/G231S/I119V/I121R/I166T/I218V/L300P/L318F/N151K/N90K/P208A/P217A/Q86G/Q94H/R138H/R169H/T345S).
T1 construct: expressed in transfected cells; host or cells: RA2.6 (mouse TAP-deficient RMAS cells transfected with pMKITneo bearing HLA-A*0206 cDNA)
In words: Peptide binding to HLA-A*0206 molecule on RA2.6 cells (flow cytometry, Kd). To be noted: HLA-A*0206, RA2.6 cells; read-out: Binding assay data (−log Kd) (converted). On the procedure: The ability of a peptide to bind to an HLA-A*0206 molecule, which is a product of the HLA-A*0206 gene, was measured using RA2.6 cells (cell line newly generated in Kochi University), wherein cDNA of the HLA-A*0206 gene is introduced into RMAS, which is a mouse TAP (transporter associated with antigen processing)-deficient cell line.
RA2.6 cells were first cultured overnight at 26° C., during this incubation HLA-A*0206 molecules devoid of bound peptide accumulated. Serial dilutions of peptide were added to these cells and peptide binding was carried out at room temperature for 30 minutes.
Subsequently, culture was carried out at 37° C. for 3.5 hours, during this incubation empty HLA-A*0206 molecules to which no peptide was bound were denatured, and the tertiary structure was lost.
The cells were stained by adding thereto fluorescently-labeled monoclonal antibody BB7.2, which specifically recognizes the peptide-bound HLA-A*0206 molecule, and incubating on ice for 20 minutes.
Subsequently, the amount of fluorescence per cell was measured using a flow cytometer, and a dissociation constant Kd value was calculated by a method published in the literature (Udaka et al., Immunogenetics, 51, 816-828, 2000).

Where no end group is shown, it is not given here.

As a reminder, the Kd is the constant that tells how readily two partners part at equilibrium. ALLPAVPSL [W10]: the Kd in assay [1] is 0.692 nM; in assay [2] it was 18.2 nM.

Values taken from US20100255020A1, “METHOD FOR INDUCING CYTOTOXIC T-CELLS, CYTOTOXIC T-CELL INDUCERS, AND PHARMACEUTICAL COMPOSITIONS AND VACCINES EMPLOYING THEM” (NEC CORPORATION, priority 2007, published 2010).
